Experimental data from patent US20090298834A1, “4-(AMINOMETHYL)CYCLOHEXANAMINE DERIVATIVES AS CALCIUM CHANNEL BLOCKERS” (priority 2008, published 2009).

What was measured:
[1] = molecular target: T1, human α1G T-type channels (Homo sapiens, UniProt O43497); assay: T-type calcium channel block, whole cell patch clamp (α1G); format: cell-based; conditions: HEK cells stably expressing human α1G; mainly non-inactivated protocol; values above 10 μM represented as 10 μM, values below 0.30 μM represented as 0.30 μM
T1 construct: expressed in transfected cells; host or cells: HEK 293
T1 sequence (O43497 whole entry): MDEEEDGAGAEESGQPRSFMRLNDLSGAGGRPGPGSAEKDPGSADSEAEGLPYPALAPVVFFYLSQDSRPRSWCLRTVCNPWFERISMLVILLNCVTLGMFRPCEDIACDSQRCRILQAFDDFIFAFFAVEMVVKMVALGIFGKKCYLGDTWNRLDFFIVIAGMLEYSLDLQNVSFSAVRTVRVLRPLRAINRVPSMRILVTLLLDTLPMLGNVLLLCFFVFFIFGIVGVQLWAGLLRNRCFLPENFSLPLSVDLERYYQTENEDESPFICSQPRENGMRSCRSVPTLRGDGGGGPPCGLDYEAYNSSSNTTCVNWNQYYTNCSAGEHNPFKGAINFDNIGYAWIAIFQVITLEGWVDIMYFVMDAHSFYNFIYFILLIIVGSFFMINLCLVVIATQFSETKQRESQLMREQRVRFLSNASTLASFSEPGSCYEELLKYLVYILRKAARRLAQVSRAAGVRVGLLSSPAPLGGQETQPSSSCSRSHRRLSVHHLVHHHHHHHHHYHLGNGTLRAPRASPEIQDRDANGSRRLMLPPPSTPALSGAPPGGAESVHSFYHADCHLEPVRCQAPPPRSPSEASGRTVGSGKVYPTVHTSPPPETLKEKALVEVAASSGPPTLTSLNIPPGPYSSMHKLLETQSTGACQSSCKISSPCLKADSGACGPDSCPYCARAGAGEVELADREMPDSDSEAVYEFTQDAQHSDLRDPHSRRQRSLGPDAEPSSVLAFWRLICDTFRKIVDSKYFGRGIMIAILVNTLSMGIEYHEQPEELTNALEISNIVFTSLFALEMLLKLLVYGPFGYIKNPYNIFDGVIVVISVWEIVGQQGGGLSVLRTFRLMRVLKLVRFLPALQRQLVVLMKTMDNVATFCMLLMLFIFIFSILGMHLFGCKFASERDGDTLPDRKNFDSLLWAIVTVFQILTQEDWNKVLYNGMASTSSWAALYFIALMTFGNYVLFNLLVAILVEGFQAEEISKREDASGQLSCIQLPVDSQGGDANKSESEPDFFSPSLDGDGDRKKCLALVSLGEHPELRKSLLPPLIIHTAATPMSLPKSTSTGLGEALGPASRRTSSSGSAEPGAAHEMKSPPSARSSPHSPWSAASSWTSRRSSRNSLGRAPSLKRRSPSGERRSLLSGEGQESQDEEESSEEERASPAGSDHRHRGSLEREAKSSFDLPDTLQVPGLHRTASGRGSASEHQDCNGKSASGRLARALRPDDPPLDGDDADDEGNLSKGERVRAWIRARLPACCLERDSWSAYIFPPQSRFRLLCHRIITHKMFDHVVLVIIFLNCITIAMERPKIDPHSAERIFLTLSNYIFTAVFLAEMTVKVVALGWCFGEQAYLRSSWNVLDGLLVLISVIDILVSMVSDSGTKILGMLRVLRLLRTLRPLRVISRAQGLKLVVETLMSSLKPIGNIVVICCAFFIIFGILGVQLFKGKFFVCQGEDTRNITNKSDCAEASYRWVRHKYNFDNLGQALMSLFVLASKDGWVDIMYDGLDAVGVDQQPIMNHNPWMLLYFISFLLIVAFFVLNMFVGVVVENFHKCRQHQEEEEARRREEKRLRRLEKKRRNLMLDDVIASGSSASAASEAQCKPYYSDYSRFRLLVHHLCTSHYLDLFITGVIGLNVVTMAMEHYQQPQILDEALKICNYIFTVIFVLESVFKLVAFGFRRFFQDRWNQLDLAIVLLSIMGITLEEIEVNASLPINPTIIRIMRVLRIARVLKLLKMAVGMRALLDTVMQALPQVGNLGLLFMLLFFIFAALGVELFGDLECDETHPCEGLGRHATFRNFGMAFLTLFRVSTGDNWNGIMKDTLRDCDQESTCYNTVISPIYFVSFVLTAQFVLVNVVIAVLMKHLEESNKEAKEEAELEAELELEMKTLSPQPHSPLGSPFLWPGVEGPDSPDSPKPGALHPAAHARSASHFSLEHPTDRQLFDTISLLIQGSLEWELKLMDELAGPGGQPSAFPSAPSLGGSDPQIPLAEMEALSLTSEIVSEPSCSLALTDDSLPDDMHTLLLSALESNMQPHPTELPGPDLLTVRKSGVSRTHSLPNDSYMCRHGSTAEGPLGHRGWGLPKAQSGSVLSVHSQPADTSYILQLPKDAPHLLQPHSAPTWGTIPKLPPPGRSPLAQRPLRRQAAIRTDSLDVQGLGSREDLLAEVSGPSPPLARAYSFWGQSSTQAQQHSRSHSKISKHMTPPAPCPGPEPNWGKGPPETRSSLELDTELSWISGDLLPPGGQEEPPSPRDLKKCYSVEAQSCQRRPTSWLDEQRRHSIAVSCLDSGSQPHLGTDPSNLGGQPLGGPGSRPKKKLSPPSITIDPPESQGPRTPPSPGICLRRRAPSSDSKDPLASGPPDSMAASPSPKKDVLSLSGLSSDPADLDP
Method: (§1) T-type calcium channel blocking activity was assayed in human embryonic kidney cells, HEK 293, stably transfected with the T-type calcium channel subunits. Briefly, cells were cultured in Dulbecco's modified eagle medium (DMEM) supplemented with 10% fetal bovine serum, 200 U/ml penicillin and 0.2 mg/ml streptomycin at 37° C. with 5% CO2. At 85% confluency cells were split with 0.25% trypsin/1 mM EDTA and plated at 10% confluency on glass coverslips. At 12 hours the medium was replaced and the cells stably transfected using a standard calcium phosphate protocol and the appropriate calcium channel cDNA's. Fresh DMEM was supplied and the cells transferred to 28° C./5% CO2. Cells were incubated for 1 to 2 days prior to whole cell recording.
(§2) Standard patch-clamp techniques were employed to identify blockers of T-type currents. Briefly, previously described HEK cell lines stably expressing human α1G, α1H and α1I T-type channels were used for all the recordings (passage #: 4-20, 37° C., 5% CO2). Whole cell patch clamp experiments were performed using an Axopatch 200B amplifier (Axon Instruments, Burlingame, Calif.) linked to a personal computer equipped with pCLAMP software. Data were analyzed using Clampfit (Axon Instruments) and SigmaPlot 4.0 (Jandel Scientific). To obtain T-type currents, plastic dishes containing semi-confluent cells were positioned on the stage of a ZEISS AXIOVERT S100 microscope after replacing the culture medium with external solution (see below). Whole-cell patches were obtained using pipettes (borosilicate glass with filament, O.D.: 1.5 mm, I.D.: 0.86 mm, 10 cm length), fabricated on a SUTTER P-97 puller with resistance values of ˜5 MΩ (see below for internal solution).
(§3) In the non-inactivating protocol, the holding potential is set at −110 mV and with a pre-pulse at −100 mV for 1 second prior to the test pulse at −40 mV for 50 ms. In the inactivation protocol, the pre-pulse is at approximately −85 mV for 1 second, which inactivates about 15% of the T-type channels.
(§4) Test compounds were dissolved in external solution, 0.1-0.01% DMSO. After 10 min rest, they were applied by gravity close to the cell using a WPI microfil tubing. The “non-inactivated” pre-pulse was used to examine the resting block of a compound. The “inactivated” protocol was employed to study voltage-dependent block. However, the initial data shown below were mainly obtained using the non-inactivated protocol only. . IC50 values are shown for various compounds of the invention in Table 4 for the drug of interest. Values are shown in μM and values above 10 μM are simply represented as 10 μM.

[2] = molecular target: T2, human α1H T-type channels (Homo sapiens, UniProt O95180); assay: T-type calcium channel block, whole cell patch clamp (α1H); format: cell-based; conditions: HEK cells stably expressing human α1H; mainly non-inactivated protocol; values above 10 μM represented as 10 μM
T2 construct: expressed in transfected cells; host or cells: HEK 293
T2 sequence (O95180 whole entry): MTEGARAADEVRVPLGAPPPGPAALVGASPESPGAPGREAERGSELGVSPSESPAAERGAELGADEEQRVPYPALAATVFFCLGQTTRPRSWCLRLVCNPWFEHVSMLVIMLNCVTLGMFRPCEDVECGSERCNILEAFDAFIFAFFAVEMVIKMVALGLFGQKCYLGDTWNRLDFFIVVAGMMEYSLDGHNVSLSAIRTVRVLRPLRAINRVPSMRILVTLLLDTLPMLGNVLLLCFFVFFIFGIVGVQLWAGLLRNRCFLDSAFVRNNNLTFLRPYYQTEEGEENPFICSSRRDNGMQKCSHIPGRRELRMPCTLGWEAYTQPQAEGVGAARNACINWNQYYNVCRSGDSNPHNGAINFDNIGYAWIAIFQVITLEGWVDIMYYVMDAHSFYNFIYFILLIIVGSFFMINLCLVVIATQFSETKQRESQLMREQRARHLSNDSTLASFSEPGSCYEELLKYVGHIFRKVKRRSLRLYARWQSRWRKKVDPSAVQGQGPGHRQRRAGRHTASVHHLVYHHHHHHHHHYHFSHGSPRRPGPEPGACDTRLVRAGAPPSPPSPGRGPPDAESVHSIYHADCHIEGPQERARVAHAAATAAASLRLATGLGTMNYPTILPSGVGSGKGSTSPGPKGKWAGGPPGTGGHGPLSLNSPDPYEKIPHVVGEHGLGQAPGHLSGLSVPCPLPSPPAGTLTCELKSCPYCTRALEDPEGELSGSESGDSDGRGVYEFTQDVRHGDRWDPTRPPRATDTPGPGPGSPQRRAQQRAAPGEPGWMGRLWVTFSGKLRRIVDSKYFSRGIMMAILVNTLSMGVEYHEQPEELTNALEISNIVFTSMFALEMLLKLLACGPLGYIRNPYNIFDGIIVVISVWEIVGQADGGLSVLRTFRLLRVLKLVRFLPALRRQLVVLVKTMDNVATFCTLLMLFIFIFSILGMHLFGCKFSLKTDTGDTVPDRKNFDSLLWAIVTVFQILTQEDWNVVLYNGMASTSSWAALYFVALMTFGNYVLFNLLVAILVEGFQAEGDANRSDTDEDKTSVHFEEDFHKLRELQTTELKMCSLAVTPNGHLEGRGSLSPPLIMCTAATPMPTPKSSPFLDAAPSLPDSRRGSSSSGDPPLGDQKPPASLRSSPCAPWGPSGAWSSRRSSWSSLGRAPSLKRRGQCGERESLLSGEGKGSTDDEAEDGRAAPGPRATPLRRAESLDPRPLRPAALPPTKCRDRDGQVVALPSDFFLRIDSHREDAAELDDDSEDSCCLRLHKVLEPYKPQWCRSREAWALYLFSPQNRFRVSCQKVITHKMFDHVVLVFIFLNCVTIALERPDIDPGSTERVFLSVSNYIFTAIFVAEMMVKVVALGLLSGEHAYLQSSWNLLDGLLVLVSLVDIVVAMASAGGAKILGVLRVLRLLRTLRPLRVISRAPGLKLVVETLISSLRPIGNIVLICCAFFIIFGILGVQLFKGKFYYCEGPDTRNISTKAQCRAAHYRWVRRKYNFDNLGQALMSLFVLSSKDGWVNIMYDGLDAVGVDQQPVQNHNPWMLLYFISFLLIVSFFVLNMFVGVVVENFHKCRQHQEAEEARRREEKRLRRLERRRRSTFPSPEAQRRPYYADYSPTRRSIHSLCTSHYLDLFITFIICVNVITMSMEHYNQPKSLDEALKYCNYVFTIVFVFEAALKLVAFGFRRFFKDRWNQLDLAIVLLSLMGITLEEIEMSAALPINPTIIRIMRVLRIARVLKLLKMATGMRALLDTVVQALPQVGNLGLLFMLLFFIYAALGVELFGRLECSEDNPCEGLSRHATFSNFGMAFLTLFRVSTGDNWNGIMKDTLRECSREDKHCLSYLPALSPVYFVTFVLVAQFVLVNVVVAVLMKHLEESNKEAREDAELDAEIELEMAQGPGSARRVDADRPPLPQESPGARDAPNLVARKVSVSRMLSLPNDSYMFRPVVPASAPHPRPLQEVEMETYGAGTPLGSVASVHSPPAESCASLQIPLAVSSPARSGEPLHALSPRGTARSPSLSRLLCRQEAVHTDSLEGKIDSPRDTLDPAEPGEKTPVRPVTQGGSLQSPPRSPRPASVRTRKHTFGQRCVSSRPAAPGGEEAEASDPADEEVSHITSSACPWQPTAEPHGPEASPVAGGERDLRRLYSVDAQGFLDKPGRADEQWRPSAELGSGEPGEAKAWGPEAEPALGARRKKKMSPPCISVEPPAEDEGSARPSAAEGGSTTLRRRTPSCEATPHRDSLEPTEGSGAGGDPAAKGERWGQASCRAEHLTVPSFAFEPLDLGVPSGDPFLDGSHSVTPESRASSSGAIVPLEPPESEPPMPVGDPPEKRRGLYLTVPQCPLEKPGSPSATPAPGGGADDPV
Method: as §1, §2, §3, §4

SMILES | IC50 [1] [µM] | IC50 [2] [µM]
O=C(NC[C@H]1CC[C@@H](NC(=O)[C@H]2CC[C@@H](c3ccccc3)N2)CC1)c1cc(C(F)(F)F)cc(C(F)(F)F)c1 [Compound 139, (2R,5S)-N-(cis-4-((3,5-bis(trifluoromethyl)benzamido)methyl)cyclohexyl)-5-phenylpyrrolidine-2-carboxamide] | 1.07 | 7.06
O=C(NC[C@H]1CC[C@H](NC(=O)[C@@H]2CC[C@H](c3ccccc3)N2)CC1)c1cc(C(F)(F)F)cc(C(F)(F)F)c1 [Compound 135, (2S,5R)-N-(trans-4-((3,5-bis(trifluoromethyl)benzamido)methyl)cyclohexyl)-5-phenylpyrrolidine-2-carboxamide] | 1.11 | 5.65
COc1cccnc1CN[C@H]1CC[C@@H](CNC(=O)c2cc(F)cc(C(F)(F)F)c2)CC1 [Compound 20, 3-fluoro-N-((cis-4-((3-methoxypyridin-2-yl)methylamino)cyclohexyl)methyl)-5-(trifluoromethyl)benzamide] | 3.32 | 5.35
Cc1cccc(CN[C@H]2CC[C@@H](CNC(=O)c3cc(F)cc(C(F)(F)F)c3)CC2)c1O [Compound 18, 3-fluoro-N-((cis-4-(2-hydroxy-3-methylbenzylamino)cyclohexyl)methyl)-5-(trifluoromethyl)benzamide] | 0.46 | 1.37
CC1(NC(=O)CN[C@H]2CC[C@H](CNC(=O)c3cccc(OC(F)(F)F)c3)CC2)CCC1 [Compound 190, N-(((1r,4r)-4-(2-(1-methylcyclobutylamino)-2-oxoethylamino)cyclohexyl)methyl)-3-(trifluoromethoxy)benzamide] | 1.63 | 0.62
COc1ccccc1CN[C@H]1CC[C@@H](CNC(=O)c2cc(F)cc(C(F)(F)F)c2)CC1 [Compound 19, 3-fluoro-N-((cis-4-(2-methoxybenzylamino)cyclohexyl)methyl)-5-(trifluoromethyl)benzamide] | 0.53 | 1.01
O=C(CN[C@H]1CC[C@@H](CNC(=O)c2cc(C(F)(F)F)cc(C(F)(F)F)c2)CC1)NCC1CCCCC1 [Compound 48, N-((cis-4-(2-(cyclohexylmethylamino)-2-oxoethylamine)cyclohexyl)methyl)-3,5-bis(trifluoromethyl)benzamide] | 0.35 | 0.25
O=C(NC[C@H]1CC[C@@H](NCc2ccccc2O)CC1)c1cc(C(F)(F)F)cc(C(F)(F)F)c1 [Compound 7, N-((cis-4-(2-hydroxybenzylamino)cyclohexyl)methyl)-3,5-bis(trifluoromethyl)benzamide] | ≤ 0.3 | 1.54
O=C(C[C@H]1CC[C@H](NC(=O)C2(c3ccccc3)CCNCC2)CC1)Nc1cc(C(F)(F)F)cc(C(F)(F)F)c1 [Compound 121, (S)-N-(trans-4-(2-(3,5-bis(trifluoromethyl)phenylamino)-2-oxoethyl)cyclohexyl)-4-phenylpiperidine-4-carboxamide] | 0.61 | ≥ 10
COc1ccc(CN[C@H]2CC[C@H](CNC(=O)c3cc(C(F)(F)F)cc(C(F)(F)F)c3)CC2)c(OC)c1 [Compound 35, N-((trans-4-(2,4-dimethoxybenzylamino)cyclohexyl)methyl)-3,5-bis(trifluoromethyl)benzamide] | 0.39 | 0.77
O=C(NC[C@H]1CC[C@@H](NCc2c(F)cccc2Cl)CC1)c1cc(F)cc(C(F)(F)F)c1 [Compound 23, N-((cis-4-(2-chloro-6-fluorobenzylamino)cyclohexyl)methyl)-3-fluoro-5-(trifluoromethyl)benzamide] | 0.91 | 2.87
COc1ccc(CN[C@H]2CC[C@@H](CNC(=O)c3cc(C(F)(F)F)cc(C(F)(F)F)c3)CC2)c(OC)c1 [Compound 14, N-((cis-4-(2,4-dimethoxybenzylamino)cyclohexyl)methyl)-3,5-bis(trifluoromethyl)benzamide] | ≤ 0.3 | 0.56

The next lines start with the values.

IC50 [1] [µM] | IC50 [2] [µM] | SMILES
0.65 | 6.07 | CC(C)(C)OC(=O)N[C@H]1CC[C@@H](CC(=O)Nc2cc(C(F)(F)F)cc(C(F)(F)F)c2)CC1 [Compound 105, tert-butyl cis-4-(2-(3,5-bis(trifluoromethyl)phenylamino)-2-oxoethyl)cyclohexylcarbamate]
1.18 | 4.01 | CC(C)(C)C1CN([C@H]2CC[C@H](CNC(=O)c3cc(C(F)(F)F)cc(C(F)(F)F)c3)CC2)C(=O)O1 (stereo partly drawn) [Compound 153, N-((trans-4-(5-tert-butyl-2-oxooxazolidin-3-yl)cyclohexyl)methyl)-3,5-bis(trifluoromethyl)benzamide]
2.54 | 2.09 | O=C(CNC[C@H]1CC[C@H](NC(=O)c2cc(C(F)(F)F)cc(C(F)(F)F)c2)CC1)NCC(F)(F)F [Compound 82, N-(trans-4-((2-oxo-2-(2,2,2-trifluoroethylamino)ethylamino)methyl)cyclohexyl)-3,5-bis(trifluoromethyl)benzamide]
1.37 | 1.95 | CC(C)(C)c1nc(CNC[C@H]2CC[C@H](NC(=O)c3cc(C(F)(F)F)cc(C(F)(F)F)c3)CC2)no1 [Compound 89, N-(trans-4-(((5-tert-butyl-1,2,4-oxadiazol-3-yl)methylamino)methyl)cyclohexyl)-3,5-bis(trifluoromethyl)benzamide]
≤ 0.3 | 0.27 | CCC(C)NC(=O)CN[C@H]1CC[C@@H](CNC(=O)c2cc(C(F)(F)F)cc(C(F)(F)F)c2)CC1 (stereo partly drawn) [Compound 71, N-((cis-4-(2-(sec-butylamino)-2-oxoethylamino)cyclohexyl)methyl)-3,5-bis(trifluoromethyl)benzamide]
0.45 | 0.55 | CC(C)(C)C(O)CN[C@H]1CC[C@@H](CNC(=O)c2cc(F)cc(C(F)(F)F)c2)CC1 (stereo partly drawn) [Compound 2, 3-fluoro-N-((cis-4-(2-hydroxy-3,3-dimethylbutylamino)cyclohexyl)methyl)-5-(trifluoromethyl)benzamide]
1 | 0.53 | O=C(CN[C@H]1CC[C@H](CNC(=O)c2cc(C(F)(F)F)cc(C(F)(F)F)c2)CC1)NCC(F)(F)F [Compound 58, N-((trans-4-(2-oxo-2-(2,2,2-trifluoroethylamino)ethylamino)cyclohexyl)methyl)-3,5-bis(trifluoromethyl)benzamide]
≤ 0.3 | 0.12 | CCC(CC)NC(=O)CN[C@H]1CC[C@@H](CNC(=O)c2cc(C(F)(F)F)cc(C(F)(F)F)c2)CC1 [Compound 42, N-((cis-4-(2-oxo-2-(pentan-3-ylamino)ethylamino)cyclohexyl)methyl)-3,5-bis(trifluoromethyl)benzamide]
≤ 0.3 | 0.615 | CC1CCCCN1C(=O)CN[C@H]1CC[C@H](CNC(=O)c2cc(C(F)(F)F)cc(C(F)(F)F)c2)CC1 (stereo partly drawn) [Compound 76, N-((trans-4-(2-(2-methylpiperidin-1-yl)-2-oxoethylamino)cyclohexyl)methyl)-3,5-bis(trifluoromethyl)benzamide]
5.59 | 2.89 | Cc1cc(CN[C@H]2CC[C@H](CNC(=O)c3cc(C(F)(F)F)cc(C(F)(F)F)c3)CC2)no1 [Compound 67, N-((trans-4-((5-methylisoxazol-3-yl)methylamino)cyclohexyl)methyl)-3,5-bis(trifluoromethyl)benzamide]
